Tests used:
Type in all cases: in vivo, FVB-Neu mice
[1] = system: NT2 tumors; assay: Orthotopic murine breast tumor model: tumor growth and survival
Protocol: 8-12 week old female FVB-Neu mice (Jackson Labs) were used under a protocol approved by University of North Carolina Institutional Animal Care and Use Committee. For tumor inoculation, mice were intradermally injected with 5×10^4 NT2 tumor cells into an axillary mammary gland. 21 days later (day 0), 1.5×10^6 CD4+ and 1.5×10^6 CD8+ CAR T cells were injected intravenously. Tumors were measured twice weekly with calipers and the tumor area calculated as length×width. The change of tumor area was determined by subtracting the tumor area before CAR T injection with the value on the day of the measurement. Per institutional guidelines, tumor-bearing mice were sacrificed when the tumor area reached 200 mm^2 or loss of more than 20% of total body weight. For tumor-bearing animals receiving combination therapy, animals underwent lymphodepletion with 5 Gy of whole body irradiation (X-RAD 320, Precision X-Ray) one day prior to CAR T injection. In the morning of day 0 mice were injected with 500 μg of DMXAA (Tocris) distal to the site of tumor growth with CAR T cells injected in the afternoon. Starting 1 day after CAR T infusion, anti-PD-1 (J43, 200 μg/mouse), anti-Gr-1 (RB6-8C5, […]), and […] (R4-6A2, 250 μg/mouse) mAb were injected intraperitoneally into respective recipients.

[2] = system: NT2 tumors; assay: Flow cytometry of CAR T cells in tumor microenvironment and spleen
Protocol: At indicated time points, tumors were bluntly resected and cut into small pieces and processed into a single-cell suspension using gentleMACS™ Dissociator (Miltenyi). Lymphocyte enrichment was achieved by isolating cells at the interface of 44% Percoll (Sigma-Aldrich) in media and Lympholyte-M (Cedarlane). Isolated immune cells were stained as described below. The lymphocyte fraction was not enriched in experiments where absolute cell number was determined.
Anti-Neu CAR T cells were detected using recombinant Neu/Her2.Fc fusion protein conjugated with PE (Neu-PE) (Creative Biomart). Antibodies used in in vitro assays included anti-CD45-FITC/e450 (30-F11, Invitrogen), anti-IFN-γ-APC (XMG1.2, Invitrogen), anti-TNF-PE-Cy7 (MP6-XT22, Invitrogen) and anti-IL-17A-PE (eBio17B7, Invitrogen). Tumor-infiltrating immune cells were detected and analyzed with anti-CD45-FITC, anti-CD3-e450 (17A2, Invitrogen), anti-CD4-BV510 (GKL.5, Biolegend), anti-CD8-APC-Cy7 (53-6.7 BD Biosciences), anti-CD44-PerCP5.5 (IM7, Invitrogen), anti-CD62L-APC (MEL-14, Invitrogen), anti-CD11b-BV711 (M1/70, Invitrogen), anti-F4/80-BV605 (BM8, Invitrogen), anti-Gr-1-Percp5.5 (RB6-8C5, Invitrogen), anti-PD-1-PE-Cy7 (J43, Invitrogen), anti-CD127-BV421 (A7R34, Biolegend), anti-KLGR1-BV605 (2F1, BD Bioscience). For in vivo intracellular protein staining, anti-Foxp3-PerCP5.5 (FJK-16S. Invitrogen), anti-Ki67-APC (SOLA15, Invitrogen) were used. Dead cells were excluded with Fixable Viability Stain 700 (BD Biosciences) and Fc receptors were blocked with Fc block (BD Biosciences). Cell number was determined using Count Bright Beads (Invitrogen). Data were collected using a BD LSR-Fortessa or BD Canto cytometer (BD Biosciences). Data were analyzed with FlowJo software (Treestar).

[3] = system: NT2 tumors; assay: Single cell RNA sequencing of tumor infiltrating CD45+ immune cells; settings: DMXAA with Th/Tc17 CAR T cells
Description: At day 7 or day 10 after CAR-T therapy, tumors were bluntly resected and cut into small pieces and digested using Tumor Dissociation Kit, mouse (Miltenyi) in gentleMACS™ Dissociator (Miltenyi) according to manufacturer's instruction. After digestion, dead and dying cells were magnetically separated using a Dead Cell Removal Kit (Miltenyi), after which immune cells were magnetically enriched using CD45 (TIL) MicroBeads (Miltenyi). Single cells were partitioned using a Chromium Controller (10× Genomics), and gene expression sequencing libraries were generated using Chromium Single Cell 3′ Library & Gel Bead Kit v3 (10× Genomics). The libraries were pooled and sequenced using an Illumina NovaSeq 6000 (Illumina). Raw base call files were demultiplexed with Cell Ranger 3.1.0 (10× Genomics) and bcl2fastq Conversion Software v2.20.0 (Illumina).
Single cell results from Cell Ranger output was analyzed using Partek flow workstation (available at partek.com/application-page/single-cell-gene-expression/). In detail, single cell result from each sample of Cell Ranger output was filtered using single cell (QA/QC) filter to exclude doublets/multiplets, cells expressing genes <30 genes per cell and dead cells. Processed results were normalized using recommended method, including log normalization of gene expression and scaled to count per million. Following results were filtered out by feature (gene) that were not expressed in 99% of samples. Then the replicate samples were pooled and clustered with an unsupervised method based on PCA using the first 16 principle component. Clustered plots were visualized by t-SNE plot, where cells were clustered using shared nearest neighbor (SNN). Populations was determined by expression of key markers, including Cd3e (T cells), Adgre1 (macrophage) and Itgam and/or Itgax (myeloid cells), and T cells were further clustered by expression of Cd8 and Cd44 (activated CD8 T cells), lack of Cd44 (naive T cells), Cd4 Cd44 (activated CD4 T cells) and Cd4 Foxp3 (Treg). For comparison, samples from each treatment group was pooled by the mean expression to simulate bulk RNA-seq, and compared using GSA analysis directly. Gene hits that reached P<0.05 with more than 2 or less than −2 fold expression difference was reported and shown as a heat map for pooled samples (macrophage and myeloid cells) or Q<0.05 with 2 or −2 fold expression difference for non-pooled samples (T cells). Further detailed analysis steps can be found on Partek flow page (available at documentation.partek.com/pages/viewpage.action?pageId=12943422) and parameter setting was set as default unless indicated.

[4] = DMXAA prior to Th/Tc17 CAR-T cell infusion, compared to mock transduced T cells or Th/Tc17 CAR-T cells alone
[5] = DMXAA with Th/Tc17 CAR T cells, flow cytometry

Cc1ccc2c(=O)c3cccc(CC(=O)O)c3oc2c1C [DMXAA]
anti-tumor efficacy [1, 4]: significantly improved
overall survival [1, 4]: significantly improved
requirement for tumor remission ([1]; Th/Tc17 CAR-T, DMXAA, anti-PD-1 and anti-Gr1 treatment): required for tumor remission
persistence of CAR T cells in the TME ([2]; DMXAA given with 7/15 CAR T cells, at a site remote from the tumor): enhanced the persistence
number of CAR T cells ([2]; DMXAA treatment, through day 10 post-therapy): marked increase
number and percentage of CD4+ CAR T cells [2, 5]: increase in the number and percentage
percentage and number of CAR T cells in the TME [2, 5]: greatly increased
expression of CXCL9 and CXCL10 by myeloid cells within the TME [3]: increased expression
expression of APOE, PTGS2 and AREG in myeloid cells ([3]; day 7): reduced expression
expression of BATF2, CXCL10, CCL5, SOCS1, NOS2 and IL12A in second myeloid cluster ([3]; day 7): greatly enhanced expression
expression of genes associated with M1-like macrophages including NOS2 and INHBA ([3]; day 7): increased expression
presence of M2-like macrophages expressing RENTLA, MMRC1, FOLR2 and IL10 in the TME ([3]; day 7): marked decrease
accumulation of T cells co-expressing TBX21, IFNG, CXCR3 and CCR5 ([3]; day 7, CD8+ CAR T cells): enhanced the accumulation

Reference: patent US20230131219A1, “USE OF AGONISTS TO AUGMENT CAR T FUNCTION IN SOLID TUMORS” (The University of North Carolina at Chapel Hill, priority 2019, published 2023)
